Assays:
Cytotoxicity CC50, MT-4 = format: cell-based; settings: human, MT-4 cells (T-lymphoblastoid cell line)
From the text: (§1) a Values represent the geometric mean and multiplicative standard deviation of 3 – 5 primary human hepatocyte (PHH) donors or 5 – 10 independent experiments.
(§2) b MT-4: human T-lymphoblastoid cell line; PBMC: peripheral blood mononuclear cell; Gal-HepG2: galactose adapted human hepatoblastoma cell line; Huh-7: human hepatoma cell line; Gal-PC3: galactose adapted human prostate carcinoma cell line; MRC-5: Medical Research Council 5 embryonal lung fibroblast; NRVM: neonatal rat ventricular cardiomyocytes

[1] = system: PHH or a panel of human cells; test: Cytotoxicity in PHH or in a panel of human cells (summary); format: cell-based; settings: concentrations up to 57 μM
Cytotoxicity CC50, PBMC = format: cell-based; settings: human, PBMC (peripheral blood mononuclear cells)
From the text: as §1, §2

Cytotoxicity CC50, PHH = format: cell-based; settings: human, primary human hepatocytes (PHH)
From the text: as §1, §2

HBV [2] = test: Extracellular HBV DNA (vDNA) by qPCR in HBV-infected PHH; format: cell-based; settings: Hepatitis B virus
Method: (§3) Approximately 24 hours after plating, PHH were infected with HepAD38-derived GTD virus at 500 viral genome equivalents per cell in maintenance medium supplemented with 4% PEG 8000 (Promega, Madison, WI; V3011). For patient sera infections, PHH were infected with 6 μl of patient sera in maintenance medium supplemented with 4% PEG 8000. Infections were allowed to proceed for 20–24 hours before removing remaining extracellular virions by washing with maintenance medium three times. […]
Viral DNA from PHH supernatants was purified using the Qiagen DNeasy 96 kit (Germantown, MD; 69582) following the manufacturer’s recommended protocol. Briefly, 50 μl of supernatant was collected, lysed with an equal volume of Qiagen ATL buffer containing 10% proteinase K, and then incubated at 56°C for 10 minutes. Lysates were then mixed with 100 μl of […] containing ethanol, transferred into the DNeasy 96 well plate, and placed onto a vacuum manifold (Qiagen; 19504). The vacuum was applied to bind DNA to the DNeasy membrane while contaminants passed through. DNA bound to the membrane was washed first with 500 μl of AW1followed by 500 μl of AW2 buffer. After washing, plates were centrifuged (Sigma Model 4-16S) at 6000 rpm for 2 minutes. DNA was then eluted with 100 μl of pre-warmed AE buffer by a final centrifugation step of 6000 rpm for 2 minutes.
Quantification of vDNA by qPCR (quantitative polymerase chain reaction) amplification of the HBVX region of the genome was performed by combining 5 μl of DNA, 900 nM of forward primer (5’[…] 3’), 900 nM of reverse primer (5’[…]-3’), 0.2 μM TaqMan probe (5’ [6FAM] […] [NFQ-MGB] 3’), and 1X TaqMan Fast Advanced Master Mix (Thermo Fisher Scientific; 4444557) for a total reaction volume of 20 μl in 96-well PCR plates (Thermo Fisher Scientific; 4346906). qPCR was carried out on a real-time PCR system (Thermo Fisher Scientific; QuantiStudio 7 Flex) using the following conditions: 95°C for 20 seconds, followed by 40 cycles of 95°C for 1 second and 60°C for 20 second. A plasmid containing the HBV full genome was used for the standard curve.
(§4) Antiviral activity of test compounds was determined from vRNA, vDNA, HBeAg, and HBsAg data by comparing compound-treated PHH to DMSO (vehicle)-treated PHH to generate a percent of DMSO control value (% DMSO control). The % DMSO control was calculated by the following equation: %DMSOControl=100xXc/XD where Xc is the signal from the compound-treated PHH and XD is the signal from the DMSO-treated PHH. The % DMSO control for vRNA, vDNA, HBeAg, HBsAg, GAPDH, or RPLP0 was plotted versus the log of each compound concentration in GraphPad Prism (version 6; Graphpad Software, LaJolla, CA) to generate dose-response curves. […] Dose-response curves were fitted using the nonlinear regression equation “log(agonist) versus response–variable slope (four parameters)” in GraphPad Prism to determine EC50 values.

PHH = test: Cytotoxicity in HBV-infected PHH (50% decrease in GAPDH or RPLP0); format: cell-based, human; settings: treated every three to four days for 14 days
[3] = as above; format: cell-based, human; settings: human, HBV-infected primary human hepatocytes (PHH); for CC50 at 14 days: PHH donor Hu8181, treated every three to four days for 14 days
HBV [4] = test: Intracellular HBV RNA (vRNA) by qRT-PCR in HBV-infected PHH; format: cell-based; settings: Hepatitis B virus
Method: as §3
Intracellular HBV viral RNA was isolated from PHH using the RNeasy 96 kit (Qiagen, 74182) following the manufacturer’s recommended protocol. Briefly, 125 μl of Qiagen RLT lysis buffer was added to PHH. The PHH lysate was then thoroughly mixed with 125 μl of 70% ethanol, transferred into a RNeasy 96 well plate, and placed onto a vacuum manifold (Qiagen; 19504). The plate was washed using RW1 and RPE buffers, followed by centrifugation (Sigma-Aldrich, Model 4-16S) at 6000 rpm for 2 minutes. The RNA was then eluted twice with 60 μl of nuclease free water for a total of 120 μl RNA.
After elution, DNase digestion by Turbo DNase (Thermo Fisher Scientific; AM2239) was performed to remove any contaminating DNA. After 30 minutes of DNase treatment at 37°C, Turbo DNase was inactivated by adding 15 mM of EDTA and heating the reaction to 75°C for 10 minutes in a thermo cycler (Thermo Fisher Scientific; Veriti 96 Well Thermal Cycler).
GAPDH or RPLP0 mRNA expression was used to normalize target gene expression. Levels of HBV RNA for all donors were calculated as fold change relative to no drug treated sample using the 2-ΔΔCt method.
as §4

[5] = read-out: vDNA EC50, PHH donor BCD, HBV GTD, treated every three to four days for 14 days
[6] = read-out: vDNA EC50, PHH donor Hu276, HBV GTD, treated every three to four days for 14 days
[7] = read-out: vDNA EC50, PHH donor Hu349, HBV GTD, treated every three to four days for 14 days
[8] = read-out: vDNA EC50, PHH donor Hu4167, HBV GTD, treated every three to four days for 14 days
[9] = read-out: vDNA EC50, PHH donor Hu7272, HBV GTD, treated every three to four days for 14 days
[10] = read-out: vDNA EC50, PHH donor Hu8130, HBV GTD, treated every three to four days for 14 days
[11] = read-out: vDNA EC50, PHH donor Hu8181, HBV GTD, treated every three to four days for 14 days
[12] = read-out: vRNA EC50, PHH donor BCD, HBV GTD, treated every three to four days for 14 days
[13] = read-out: vRNA EC50, PHH donor Hu276, HBV GTD, treated every three to four days for 14 days
[14] = read-out: vRNA EC50, PHH donor Hu349, HBV GTD, treated every three to four days for 14 days
[15] = read-out: vRNA EC50, PHH donor Hu4167, HBV GTD, treated every three to four days for 14 days
[16] = read-out: vRNA EC50, PHH donor Hu7272, HBV GTD, treated every three to four days for 14 days
[17] = read-out: vRNA EC50, PHH donor Hu8130, HBV GTD, treated every three to four days for 14 days
[18] = read-out: vRNA EC50, PHH donor Hu8181, HBV GTD, treated every three to four days for 14 days

SMILES | CC50 (Cytotoxicity CC50, MT-4) [nM] | measurable cytotoxicity [1] | CC50 (Cytotoxicity CC50, PBMC) [nM] | CC50 (Cytotoxicity CC50, PHH) [nM] | EC50 (HBV [2]; [5]) [nM] | EC50 (HBV [2]; [6]) [nM] | EC50 (HBV [2]; [7]) [nM] | EC50 (HBV [2]; [8]) [nM] | EC50 (HBV [2]; [9]) [nM] | EC50 (HBV [2]; [10]) [nM] | EC50 (HBV [2]; [11]) [nM] | CC50 (PHH; PHH donor Hu276) [nM] | CC50 (PHH; PHH donor Hu349) [nM] | CC50 (PHH; PHH donor Hu4167) [nM] | CC50 (PHH; PHH donor Hu7272) [nM] | CC50 (PHH; PHH donor Hu8130) [nM] | CC50 (PHH; PHH donor) [nM] | CC50 at 14 days [3] [nM] | EC50 (HBV [4]; [12]) [nM] | EC50 (HBV [4]; [13]) [nM] | further results
CCN(CCN(C)C)C(=O)CNCc1cc(C(=O)O)ccn1 [GS-080] | > 57000 | neither GS-5801 nor GS-080 had measurable cytotoxicity | > 44000 | > 50000 |  |  |  |  |  |  |  |  |  |  |  |  |  |  |  |  | 
CCOC(=O)c1ccnc(CNCC(=O)N(CC)CCN(C)C)c1 [GS-5801] | 51000 ± 1200 | neither GS-5801 nor GS-080 had measurable cytotoxicity | > 44000 | > 50000 | 7.1 | 70 | 230 | 110 | 1100 | 1300 | 140 | > 10000 | > 10000 | > 10000 | > 10000 | > 10000 | > 10000 | > 10000 | 34 | 42 | EC50 (HBV [2]; 336 h, read-out: EC50 range across genotypes, extracellular HBV DNA, range across genotypes, 14 days of dosing): 79 to 250 nM; EC50 (HBV [2]; 336 h, read-out: EC50 range for extracellular DNA, range over the seven PHH donors tested, HBV GTD, Day 14): 7.1 to 1300 nM; EC50 (HBV [2]; 336 h, read-out: median EC50, extracellular HBV DNA, median across HBV genotypes, 14 days of dosing): 200 nM; EC50 (HBV [2]; read-out: vDNA EC50, PHH infected with HBV GTA, treated every three to four days for 13 days): 170 nM; EC50 (HBV [2]; read-out: vDNA EC50, PHH infected with HBV GTC, treated every three to four days for 13 days): 79 nM; EC50 (HBV [2]; read-out: vDNA EC50, PHH infected with HBV GTD, treated every three to four days for 13 days (Table 3)): 220 nM; EC50 (HBV [2]; read-out: vDNA EC50, PHH infected with HBV GTE, treated every three to four days for 13 days): 250 nM; CC50 ([3]; the seven PHH donors tested): > 10000 nM; EC50 (HBV [4]; 336 h, read-out: EC50 range across genotypes, intracellular HBV RNA, range across genotypes, 14 days of dosing): 51 to 2700 nM; EC50 (HBV [4]; 336 h, read-out: EC50 range for intracellular RNA, range over the seven PHH donors tested, HBV GTD, Day 14): 34 to 1100 nM; EC50 (HBV [4]; [14]): 430 nM; EC50 (HBV [4]; [15]): 47 nM; EC50 (HBV [4]; [16]): 930 nM; EC50 (HBV [4]; [17]): 1100 nM; EC50 (HBV [4]; [18]): 160 nM; EC50 (HBV [4]; read-out: vRNA EC50, PHH infected with HBV GTA, treated every three to four days for 13 days): 1800 nM; EC50 (HBV [4]; read-out: vRNA EC50, PHH infected with HBV GTC, treated every three to four days for 13 days): 51 nM; EC50 (HBV [4]; read-out: vRNA EC50, PHH infected with HBV GTD, treated every three to four days for 13 days (Table 3)): 430 nM; EC50 (HBV [4]; read-out: vRNA EC50, PHH infected with HBV GTE, treated every three to four days for 13 days): 2700 nM
CCOC(=O)c1cc(CNCC(=O)N(CC)CCN(C)C)ncc1Br [GS-420] |  |  |  |  | > 10000 | > 10000 | > 10000 | > 10000 | > 10000 | > 10000 | > 10000 | > 10000 | > 10000 | > 10000 | > 10000 | > 10000 | > 10000 | > 10000 | > 10000 | > 10000 | EC50 (HBV [4]; [14]): > 10000 nM; EC50 (HBV [4]; [15]): > 10000 nM; EC50 (HBV [4]; [16]): > 10000 nM; EC50 (HBV [4]; [17]): > 10000 nM; EC50 (HBV [4]; [18]): > 10000 nM

— paper PMC9728921, “Characterization of a KDM5 small molecule inhibitor with antiviral activity against hepatitis B virus” (PLOS ONE, 2022)
